Where two headings read alike, the source gives them in different places.
Legend:
[1] = system: hTERT-HME1 cells carrying KRAS (G13D) KI; assay: Drug assay: cell viability by ATP content (96 h), KI versus parental cells; ΔKI pharmarray analysis
[2] = system: hTERT-HME1 cells carrying PIK3CA (E545K and H1047R) KI; assay: Drug assay: cell viability by ATP content (96 h) and Hoechst/propidium iodide staining, KI versus parental cells; ΔKI pharmarray analysis
[3] = system: hTERT-HME1 cells carrying BRAF (V600E) KI; assay: Drug assay: cell viability by ATP content (96 h), KI versus parental cells; ΔKI pharmarray analysis
[4] = system: hTERT-HME1 cells carrying EGFR (delE746-A750) KI; assay: Drug assay: cell viability by ATP content (CellTiter-Glo, 96 h), KI versus parental cells; ΔKI pharmarray analysis
[5] = system: hTERT-HME1 DKI cells carrying PIK3CA (H1047R) and EGFR (delE746-A750); assay: Drug assay: cell viability by ATP content (96 h), DKI versus parental cells; ΔKI pharmarray analysis

N.N.[Cl][Pt][Cl] [Cisplatin]
ΔKI KRAS ([1]; Log(M) −4.70): 0
ΔKI KRAS ([1]; Log(M) −5.00): 0
ΔKI KRAS ([1]; Log(M) −5.70): 0
ΔKI KRAS ([1]; Log(M) −6.00): 0
ΔKI KRAS ([1]; Log(M) −6.70): 0
ΔKI KRAS ([1]; Log(M) −7.00): 0
ΔKI PIK3CA ([2]; Log(M) −4.70): 0
ΔKI PIK3CA ([2]; Log(M) −5.00): 0
ΔKI PIK3CA ([2]; Log(M) −5.70): 0
ΔKI PIK3CA ([2]; Log(M) −6.00): 0
ΔKI PIK3CA ([2]; Log(M) −6.70): 0
ΔKI PIK3CA ([2]; Log(M) −7.00): 0
ΔKI BRAF ([3]; Log(M) −4.70): 3.82
ΔKI BRAF ([3]; Log(M) −5.00): 0
ΔKI BRAF ([3]; Log(M) −5.70): 7.62
ΔKI BRAF ([3]; Log(M) −6.00): 0
ΔKI BRAF ([3]; Log(M) −6.70): 0
ΔKI BRAF ([3]; Log(M) −7.00): 0
ΔKI EGFR ([4]; Log(M) −4.70): 0
ΔKI EGFR ([4]; Log(M) −5.00): 4.84
ΔKI EGFR ([4]; Log(M) −5.70): 0
ΔKI EGFR ([4]; Log(M) −6.00): 0
ΔKI EGFR ([4]; Log(M) −6.70): 0
ΔKI EGFR ([4]; Log(M) −7.00): 0
ΔKI PIK3CA + EGFR ([5]; Log(M) −4.70): 0
ΔKI PIK3CA + EGFR ([5]; Log(M) −5.00): 4.9
ΔKI PIK3CA + EGFR ([5]; Log(M) −5.70): 2.16
ΔKI PIK3CA + EGFR ([5]; Log(M) −6.00): 0.7
ΔKI PIK3CA + EGFR ([5]; Log(M) −6.70): 0
ΔKI PIK3CA + EGFR ([5]; Log(M) −7.00): −1.32

c1cc(-c2cnn3cc(-c4ccc(OCCN5CCCCC5)cc4)cnc23)ccn1 [Compound C]
ΔKI KRAS [1]: 0
ΔKI KRAS ([1]; Log(M) −4.70): 0
ΔKI PIK3CA [2]: 0
ΔKI PIK3CA ([2]; Log(M) −4.70): 0
ΔKI BRAF [3]: 0
ΔKI BRAF ([3]; Log(M) −4.70): 0
ΔKI EGFR [4]: 0
ΔKI EGFR ([4]; Log(M) −4.70): 0
ΔKI PIK3CA + EGFR [5]: 0
ΔKI PIK3CA + EGFR ([5]; Log(M) −4.70): 0

COc1ccc(-c2cc(=O)c3c(O)c(OC)c(O)cc3o2)cc1OC [Eupatiline]
ΔKI KRAS [1]: 0
ΔKI KRAS ([1]; Log(M) −3.97): 0
ΔKI PIK3CA [2]: −1.66
ΔKI PIK3CA ([2]; Log(M) −3.97): 0
ΔKI BRAF [3]: −0.1
ΔKI BRAF ([3]; Log(M) −3.97): 2.9
ΔKI EGFR [4]: 0
ΔKI EGFR ([4]; Log(M) −3.97): 0
ΔKI PIK3CA + EGFR [5]: 0
ΔKI PIK3CA + EGFR ([5]; Log(M) −3.97): 0

COc1ccc2c(c1)c(CC(=O)N1CCOCC1)c(C)n2C(=O)c1ccc(Cl)cc1 [IMMA (BML-190)]
ΔKI KRAS [1]: 0
ΔKI KRAS ([1]; Log(M) −3.90): 0
ΔKI PIK3CA [2]: 0
ΔKI PIK3CA ([2]; Log(M) −3.90): 0.72
ΔKI BRAF [3]: 0
ΔKI BRAF ([3]; Log(M) −3.90): 0
ΔKI EGFR [4]: 0
ΔKI EGFR ([4]; Log(M) −3.90): 0
ΔKI PIK3CA + EGFR [5]: 0
ΔKI PIK3CA + EGFR ([5]; Log(M) −3.90): 0

CCCn1c(C)c(C(=O)c2cccc3ccccc23)c2ccccc21 [JWH-015]
ΔKI KRAS [1]: 0
ΔKI KRAS ([1]; Log(M) −3.55): 0
ΔKI PIK3CA [2]: 0
ΔKI PIK3CA ([2]; Log(M) −3.55): 0
ΔKI BRAF [3]: 0
ΔKI BRAF ([3]; Log(M) −3.55): 0
ΔKI EGFR [4]: 0
ΔKI EGFR ([4]; Log(M) −3.55): 0
ΔKI PIK3CA + EGFR [5]: 0
ΔKI PIK3CA + EGFR ([5]; Log(M) −3.55): 0

CCCCC/C=C\C/C=C\C/C=C\C/C=C\CCC(C)C(=O)NCCF (centres unmarked) [Met-F-AEA]
ΔKI KRAS [1]: 0
ΔKI PIK3CA [2]: 0
ΔKI BRAF ([3]; listed as OGC-079): 0.3
ΔKI EGFR [4]: 0
ΔKI PIK3CA + EGFR [5]: 0

CCCCCCCCCCCCCCCCCCOCC(COC(=O)OC1C(O)C(O)C(O)C(CO)C1O)OC [OGC-023, 1L6-Hydroxymethyl-chiro-inositol-2-(R)-2-O-methyl-3-O-octadecyl-sn-glycerocarbonate]
ΔKI KRAS ([1]; Log(M) −4.14): 0
ΔKI KRAS ([1]; Log(M) −4.62): 0
ΔKI KRAS ([1]; Log(M) −5.10): 0
ΔKI PIK3CA ([2]; Log(M) −4.14): 0
ΔKI PIK3CA ([2]; Log(M) −4.62): 0
ΔKI PIK3CA ([2]; Log(M) −5.10): 0
ΔKI BRAF ([3]; Log(M) −4.14): 0
ΔKI BRAF ([3]; Log(M) −4.62): 0
ΔKI BRAF ([3]; Log(M) −5.10): 0
ΔKI EGFR ([4]; Log(M) −4.14): 0
ΔKI EGFR ([4]; Log(M) −4.62): 0
ΔKI EGFR ([4]; Log(M) −5.10): 0
ΔKI PIK3CA + EGFR ([5]; Log(M) −4.14): 0
ΔKI PIK3CA + EGFR ([5]; Log(M) −4.62): 3.32
ΔKI PIK3CA + EGFR ([5]; Log(M) −5.10): 2.4

O=C1CCC(N2C(=O)c3ccccc3C2=O)C(=O)N1 (centres unmarked) [OGC-065]
ΔKI KRAS [1]: 0
ΔKI KRAS ([1]; Log(M) −2.05): 0
ΔKI KRAS ([1]; Log(M) −3.35): 0
ΔKI PIK3CA [2]: 0
ΔKI PIK3CA ([2]; Log(M) −2.05): 1.9
ΔKI PIK3CA ([2]; Log(M) −3.35): 0
ΔKI BRAF [3]: 0
ΔKI BRAF ([3]; Log(M) −2.05): 0
ΔKI BRAF ([3]; Log(M) −3.35): 0
ΔKI EGFR [4]: 0
ΔKI EGFR ([4]; Log(M) −2.05): 0
ΔKI EGFR ([4]; Log(M) −3.35): −0.68
ΔKI PIK3CA + EGFR ([5]; Log(M) −2.05): 0
ΔKI PIK3CA + EGFR ([5]; Log(M) −3.35): −0.8

COc1cccc(-c2cc(=O)c3ccccc3o2)c1N [PD 98059]
ΔKI KRAS ([1]; Log(M) −3.57): 0
ΔKI KRAS ([1]; Log(M) −4.05): 0
ΔKI KRAS ([1]; Log(M) −4.52): 0
ΔKI PIK3CA ([2]; Log(M) −3.57): 0
ΔKI PIK3CA ([2]; Log(M) −4.05): 0
ΔKI PIK3CA ([2]; Log(M) −4.52): 0
ΔKI BRAF ([3]; Log(M) −3.57): 0
ΔKI BRAF ([3]; Log(M) −4.05): 0
ΔKI BRAF ([3]; Log(M) −4.52): 4
ΔKI EGFR ([4]; Log(M) −3.57): 0
ΔKI EGFR ([4]; Log(M) −4.05): 3.5
ΔKI EGFR ([4]; Log(M) −4.52): 0
ΔKI PIK3CA + EGFR ([5]; Log(M) −3.57): 0
ΔKI PIK3CA + EGFR ([5]; Log(M) −4.05): 0
ΔKI PIK3CA + EGFR ([5]; Log(M) −4.52): 0

CC[C@H](C)C(=O)O[C@H]1C[C@H](O)C=C2C=C[C@H](C)[C@H](CC[C@@H](O)C[C@@H](O)CC(=O)[O-])[C@H]21.[Na+] [Pravastatin Na]
ΔKI KRAS ([1]; Log(M) −4.32): 0
ΔKI KRAS ([1]; Log(M) −4.92): 0
ΔKI KRAS ([1]; Log(M) −5.52): 0
ΔKI PIK3CA ([2]; Log(M) −4.32): 0
ΔKI PIK3CA ([2]; Log(M) −5.52): 0
ΔKI BRAF ([3]; Log(M) −4.32): 0
ΔKI BRAF ([3]; Log(M) −4.92): 0
ΔKI BRAF ([3]; Log(M) −5.52): 0
ΔKI EGFR ([4]; Log(M) −4.32): 0
ΔKI EGFR ([4]; Log(M) −4.92): 0
ΔKI EGFR ([4]; Log(M) −5.52): 0
ΔKI PIK3CA + EGFR ([5]; Log(M) −4.32): 0
ΔKI PIK3CA + EGFR ([5]; Log(M) −4.92): 0
ΔKI PIK3CA + EGFR ([5]; Log(M) −5.52): 0

COC(=O)C1=CC[C@@]23CC[C@@H]([C@@](C)(/C=C/C=C(\C)C(=O)O)OC2=O)[C@@]3(OC(C)=O)CC1 [Pseudolaric Acid B]
ΔKI KRAS [1]: 0
ΔKI KRAS ([1]; Log(M) −6.48): 0
ΔKI PIK3CA [2]: 0
ΔKI PIK3CA ([2]; Log(M) −6.48): 0
ΔKI BRAF ([3]; Log(M) −6.48): 0
ΔKI EGFR [4]: 0
ΔKI EGFR ([4]; Log(M) −6.48): 0
ΔKI PIK3CA + EGFR ([5]; Log(M) −6.48): 0.54

CCCCCc1cc(O)c2c(c1)OC(C)(C)[C@@H]1CCC(C)=C[C@@H]21 [THC]
ΔKI KRAS [1]: 0
ΔKI PIK3CA [2]: 0
ΔKI BRAF [3]: 0.3
ΔKI BRAF ([3]; Log(M) −4.60): 0.46
ΔKI BRAF ([3]; listed as OGC-089): 0.88
ΔKI EGFR [4]: 0
ΔKI PIK3CA + EGFR [5]: 0

O=C([O-])C[C@H](O)C[C@H](O)/C=C/c1c(C2CC2)nc2ccccc2c1-c1ccc(F)cc1.O=C([O-])C[C@H](O)C[C@H](O)/C=C/c1c(C2CC2)nc2ccccc2c1-c1ccc(F)cc1.[Ca+2] [itavastatin, Itavastatin Ca]
ΔKI KRAS [1]: 0
ΔKI PIK3CA [2]: 0
ΔKI BRAF [3]: 0
pharmarray: differential response of BRAF mutated cells versus WT ([3]; hTERT-HME1, FIG. 5H): more resistant
ΔKI BRAF ([3]; listed as OGC-072): −7.2
ΔKI EGFR [4]: 0
ΔKI PIK3CA + EGFR [5]: 0

Erybraedin C
ΔKI KRAS [1]: 0
ΔKI KRAS ([1]; Log(M) −4.70): 0
ΔKI PIK3CA [2]: 0
ΔKI PIK3CA ([2]; Log(M) −4.70): 0
ΔKI BRAF [3]: 0
ΔKI BRAF ([3]; Log(M) −4.70): 0
ΔKI EGFR [4]: 0
ΔKI EGFR ([4]; Log(M) −4.70): 0
ΔKI PIK3CA + EGFR ([5]; Log(M) −4.70): 0.38

From patent US20120115896A1, “ISOGENIC HUMAN CELL LINES COMPRISING MUTATED CANCER ALLELES AND PROCESS USING THE CELL LINES” (priority 2008, published 2012)
